{
  "source": "patent US8859768B2",
  "about": "“Heteroaryls and uses thereof” (Millennium Pharmaceuticals, Inc., priority 2010, dated 2014)",
  "data": [
    {"biological_target": "T1, Human VPS34 (Homo sapiens, UniProt Q8NEB9)", "T1 construct": "GST (N); host or cells: SF9 insect cells (baculovirus)", "T1 sequence (Q8NEB9 whole entry, the tested form may be a part)": "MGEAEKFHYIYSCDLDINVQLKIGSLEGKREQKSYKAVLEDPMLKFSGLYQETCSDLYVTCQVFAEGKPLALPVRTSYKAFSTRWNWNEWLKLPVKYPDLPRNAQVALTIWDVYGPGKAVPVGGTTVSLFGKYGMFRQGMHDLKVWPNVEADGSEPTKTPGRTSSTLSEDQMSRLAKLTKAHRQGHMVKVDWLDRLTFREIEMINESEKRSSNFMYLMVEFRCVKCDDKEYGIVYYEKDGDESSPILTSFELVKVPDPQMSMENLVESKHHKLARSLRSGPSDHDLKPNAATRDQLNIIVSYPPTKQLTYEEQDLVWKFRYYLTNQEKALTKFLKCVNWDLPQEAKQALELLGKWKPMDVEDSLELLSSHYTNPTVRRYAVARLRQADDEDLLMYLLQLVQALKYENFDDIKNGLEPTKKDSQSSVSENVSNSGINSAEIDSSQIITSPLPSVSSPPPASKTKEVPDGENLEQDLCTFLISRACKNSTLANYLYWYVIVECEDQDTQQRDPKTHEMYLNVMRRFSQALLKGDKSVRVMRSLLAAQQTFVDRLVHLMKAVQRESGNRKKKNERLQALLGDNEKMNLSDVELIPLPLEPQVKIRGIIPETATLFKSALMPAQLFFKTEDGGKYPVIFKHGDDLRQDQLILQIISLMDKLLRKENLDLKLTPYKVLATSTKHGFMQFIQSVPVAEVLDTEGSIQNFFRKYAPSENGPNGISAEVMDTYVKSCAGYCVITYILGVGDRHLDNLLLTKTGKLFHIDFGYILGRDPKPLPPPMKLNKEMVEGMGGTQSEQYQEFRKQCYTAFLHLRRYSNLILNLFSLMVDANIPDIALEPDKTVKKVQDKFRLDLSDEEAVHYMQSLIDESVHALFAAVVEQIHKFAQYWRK", "test": "Human VPS34 Enzyme Assay (Adapta TR-FRET)", "format": "biochemical", "conditions": "compound at 1.111 μM; read-out: Average VPS34 % INH @ 1.111 μM", "protocol": "VPS34 (accession number GB:BC033004) was cloned into pDEST20-Thombin as N-terminal GST tagged fusion proteins using the Gateway system (Invitrogen, catalog#11804-013). The sequences were verified before recombinant protein expression using the Baculovirus Expression System with Gateway® Technology.\nFor expression VPS34 was infected at 1MOI in SF9 cells and harvested 72 hours post infection.\nFor purification, VPS34 is purified by Glutathione Sepharose 4 Fast Flow (GE Healthcare #17-5132-03) followed by HiTrap Q (GE Healthcare #17-1153-01).\nHuman VPS34 Enzyme Assay Method\n100 nL compounds in DMSO are added to wells of a 384 well microtitre plate (Greiner 780076). At room temperature: 5 ul VPS34 reaction buffer (Invitrogen Assay Buffer Q (diluted 1 in 5 with nanopure water) plus 2 mM DTT and 2 mM MnCl2) containing ATP (20 uM, Promega) and 200 uM PI-PS substrate (Invitrogen PV5122) is added followed immediately by 5 ul VPS34 reaction buffer (as above) containing VPS34 (5 nM, Millennium Protein Sciences Group) and the mixture is incubated with shaking at room temperature for 1 hour. Then 5 ul VPS34 stop-detect mix (as per Invitrogen Adapta Assay kit (PV5009) instructions (contains kinase quench buffer, TR-FRET buffer, Adapta Eu anti-ADP antibody and Alexa Fluor 647 ADP tracer)) is added to quench the reaction. The plates are then incubated for 30 minutes at room temperature with shaking and then read on a BMG PheraStar Plus reader.\n3) VPS34 is assayed using Adapta™ Universal Kinase Assay Kit (Invitrogen).", "units": {"inhibition at 1.111 µM": "%"}, "values": [
      {"smiles": "CC(=O)Nc1cc(-c2nc(C(=O)NC[C@@H](C)O)c(-c3ccccc3Cl)o2)c(C)cn1", "note": "(stereo in doubt) [Compound I-62, 2-(2-acetamido-5-methylpyridin-4-yl)-5-(2-chlorophenyl)-N-(2-hydroxypropyl)-1,3-oxazole-4-carboxamide]", "inhibition at 1.111 µM": 51},
      {"smiles": "CC(=O)Nc1cc(-c2cc(C(=O)NC[C@@H](C)O)c(-c3ccccc3Cl)o2)c(C)cn1", "note": "(stereo in doubt) [Compound I-66, 5-(2-acetamido-5-methylpyridin-4-yl)-2-(2-chlorophenyl)-N-(2-hydroxypropyl)-3-furamide]", "inhibition at 1.111 µM": 131},
      {"smiles": "CC(=O)Nc1cc(-c2cc(C(N)=O)c(-c3ccccc3Cl)o2)ccn1", "note": "[Compound I-1, 5-[2-(acetylamino)pyridin-4-yl]-2-(2-chlorophenyl)-3-furamide]", "inhibition at 1.111 µM": 120},
      {"smiles": "CC(=O)Nc1cc(-c2cc(C(=O)O)c(-c3ccccc3Cl)o2)ccn1", "note": "[Compound I-2, 5-[2-(acetylamino)pyridin-4-yl]-2-(2-chlorophenyl)-3-furoic acid]", "inhibition at 1.111 µM": 124},
      {"smiles": "CC(=O)Nc1cc(-c2nc(C(N)=O)c(-c3ccccc3Cl)o2)c(C)cn1", "note": "[Compound I-3, 2-[2-(acetylamino)-5-methylpyridin-4-yl]-5-(2-chlorophenyl)-1,3-oxazole-4-carboxamide]", "inhibition at 1.111 µM": 112},
      {"smiles": "CC(=O)Nc1cc(-c2nc(-c3nnc[nH]3)c(-c3ccccc3Cl)o2)c(C)cn1", "note": "[Compound I-4, N-{4-[5-(2-chlorophenyl)-4-(4H-1,2,4-triazol-3-yl)-1,3-oxazol-2-yl]-5-methylpyridin-2-yl}acetamide]", "inhibition at 1.111 µM": 118},
      {"smiles": "CC(=O)Nc1cc(-c2nc(-c3ccccc3Cl)c(C(N)=O)o2)c(C)cn1", "note": "[Compound I-5, 2-[2-(acetylamino)-5-methylpyridin-4-yl]-4-(2-chlorophenyl)-1,3-oxazole-5-carboxamide]", "inhibition at 1.111 µM": 108},
      {"smiles": "CC(=O)Nc1cc(-c2nc(C(=O)O)c(-c3ccccc3Cl)o2)c(C)cn1", "note": "[Compound I-6, 2-[2-(acetylamino)-5-methylpyridin-4-yl]-5-(2-chlorophenyl)-1,3-oxazole-4-carboxylic acid]", "inhibition at 1.111 µM": 99},
      {"smiles": "CC(=O)Nc1cc(-c2cc(-c3nnc[nH]3)c(-c3cc(CN(C)C)ccc3Cl)o2)c(C)cn1", "note": "[Compound I-7, N-{4-[5-{2-chloro-5-[(dimethylamino)methyl]phenyl}-4-(4H-1,2,4-triazol-3-yl)-2-furyl]-5-methylpyridin-2-yl}acetamide]", "inhibition at 1.111 µM": 147},
      {"smiles": "CC(=O)Nc1ccc(-c2nc(-c3nnc[nH]3)c(-c3ccccc3Cl)o2)cc1", "note": "[Compound I-8, N-{4-[5-(2-chlorophenyl)-4-(4H-1,2,4-triazol-3-yl)-1,3-oxazol-2-yl]phenyl}acetamide]", "inhibition at 1.111 µM": 7},
      {"smiles": "CC(=O)Nc1cc(-c2nc(C(=O)NCc3ccco3)c(-c3ccccc3Cl)o2)c(C)cn1", "note": "[Compound I-9, 2-(2-acetamido-5-methylpyridin-4-yl)-5-(2-chlorophenyl)-N-(2-furylmethyl)-1,3-oxazole-4-carboxamide]", "inhibition at 1.111 µM": 64},
      {"smiles": "CC(=O)Nc1cc(-c2nc(-c3ncco3)c(-c3ccccc3Cl)o2)c(C)cn1", "note": "[Compound I-10, N-{4-[5′-(2-chlorophenyl)-2,4′-bi-1,3-oxazol-2′-yl]-5-methylpyridin-2-yl}acetamide]", "inhibition at 1.111 µM": 132},
      {"smiles": "CC(=O)Nc1cc(-c2nc(C(=O)NCCC(C)C)c(-c3ccccc3Cl)o2)c(C)cn1", "note": "[Compound I-11, 2-(2-acetamido-5-methylpyridin-4-yl)-5-(2-chlorophenyl)-N-(3-methylbutyl)-1,3-oxazole-4-carboxamide]", "inhibition at 1.111 µM": 22},
      {"smiles": "CC(=O)Nc1cc(-c2cc(C(=O)NCCn3ccnc3)c(-c3ccccc3Cl)o2)c(C)cn1", "note": "[Compound I-12, 5-(2-acetamido-5-methylpyridin-4-yl)-2-(2-chlorophenyl)-N-[2-(1H-imidazol-1-yl)ethyl]-3-furamide]", "inhibition at 1.111 µM": 61},
      {"smiles": "CC(=O)Nc1cc(-c2nc(C(=O)NCCCCO)c(-c3ccccc3Cl)o2)c(C)cn1", "note": "[Compound I-13, 2-(2-acetamido-5-methylpyridin-4-yl)-5-(2-chlorophenyl)-N-(4-hydroxybutyl)-1,3-oxazole-4-carboxamide]", "inhibition at 1.111 µM": 95},
      {"smiles": "CC(=O)Nc1cc(-c2cc(C(=O)NC3CCC3)c(-c3ccccc3Cl)o2)c(C)cn1", "note": "[Compound I-14, 5-(2-acetamido-5-methylpyridin-4-yl)-2-(2-chlorophenyl)-N-cyclobutyl-3-furamide]", "inhibition at 1.111 µM": 88},
      {"smiles": "CC(=O)Nc1cc(-c2cc(C(=O)Nc3nccs3)c(-c3ccccc3Cl)o2)c(C)cn1", "note": "[Compound I-15, 5-(2-acetamido-5-methylpyridin-4-yl)-2-(2-chlorophenyl)-N-(1,3-thiazol-2-yl)-3-furamide]", "inhibition at 1.111 µM": 103},
      {"smiles": "CC(=O)Nc1cc(-c2nc(-c3cc(CN4CCCC4)ccc3Cl)c(-c3nnc[nH]3)o2)c(C)cn1", "note": "[Compound I-16, N-(4-{4-[2-chloro-5-(pyrrolidin-1-ylmethyl)phenyl]-5-(4H-1,2,4-triazol-3-yl)-1,3-oxazol-2-yl}-5-methylpyridin-2-yl)acetamide]", "inhibition at 1.111 µM": 131},
      {"smiles": "CC(=O)Nc1cc(-c2cc(-c3nnc[nH]3)c(N3CCCS3(=O)=O)o2)c(C)cn1", "note": "[Compound I-17, N-{4-[5-(1,1-dioxidoisothiazolidin-2-yl)-4-(4H-1,2,4-triazol-3-yl)-2-furyl]-5-methylpyridin-2-yl}acetamide]", "inhibition at 1.111 µM": 127},
      {"smiles": "O=C(Nc1cc(-c2nc(-c3nnc[nH]3)c(-c3ccccc3Cl)o2)ccn1)C1CC1", "note": "[Compound I-18, N-{4-[5-(2-chlorophenyl)-4-(4H-1,2,4-triazol-3-yl)-1,3-oxazol-2-yl]pyridin-2-yl}cyclopropanecarboxamide]", "inhibition at 1.111 µM": 120},
      {"smiles": "CC(=O)Nc1cc(-c2cc(C(=O)Nc3ccccc3)c(-c3ccccc3Cl)o2)c(C)cn1", "note": "[Compound I-19, 5-(2-acetamido-5-methylpyridin-4-yl)-2-(2-chlorophenyl)-N-phenyl-3-furamide]", "inhibition at 1.111 µM": 48},
      {"smiles": "CC(=O)Nc1cc(-c2nc(C(=O)NCc3ccccn3)c(-c3ccccc3Cl)o2)c(C)cn1", "note": "[Compound I-20, 2-(2-acetamido-5-methylpyridin-4-yl)-5-(2-chlorophenyl)-N-(pyridin-2-ylmethyl)-1,3-oxazole-4-carboxamide]", "inhibition at 1.111 µM": 37},
      {"smiles": "CC(=O)Nc1cc(-c2nc(C(=O)NC(C)C)c(-c3ccccc3Cl)o2)c(C)cn1", "note": "[Compound I-21, 2-(2-acetamido-5-methylpyridin-4-yl)-5-(2-chlorophenyl)-N-isopropyl-1,3-oxazole-4-carboxamide]", "inhibition at 1.111 µM": 25},
      {"smiles": "COC(CNC(=O)c1cc(-c2cc(NC(C)=O)ncc2C)oc1-c1ccccc1Cl)OC", "note": "[Compound I-22, 5-(2-acetamido-5-methylpyridin-4-yl)-2-(2-chlorophenyl)-N-(2,2-dimethoxyethyl)-3-furamide]", "inhibition at 1.111 µM": 110},
      {"smiles": "CC(=O)Nc1cc(-c2cc(-c3nnc[nH]3)c(-c3ccccc3Cl)o2)c(C)cn1", "note": "[Compound I-23, N-{4-[5-(2-chlorophenyl)-4-(4H-1,2,4-triazol-3-yl)-2-furyl]-5-methylpyridin-2-yl}acetamide]", "inhibition at 1.111 µM": 139},
      {"smiles": "CC(=O)Nc1cc(-c2cc(C(=O)NCCCn3ccnc3)c(-c3ccccc3Cl)o2)c(C)cn1", "note": "[Compound I-24, 5-(2-acetamido-5-methylpyridin-4-yl)-2-(2-chlorophenyl)-N-[3-(1H-imidazol-1-yl)propyl]-3-furamide]", "inhibition at 1.111 µM": 102},
      {"smiles": "CC(=O)Nc1cc(-c2nc(C(=O)NCCOCCO)c(-c3ccccc3Cl)o2)c(C)cn1", "note": "[Compound I-25, 2-(2-acetamido-5-methylpyridin-4-yl)-5-(2-chlorophenyl)-N-[2-(2-hydroxyethoxy)ethyl]-1,3-oxazole-4-carboxamide]", "inhibition at 1.111 µM": 41},
      {"smiles": "CC(=O)Nc1cc(-c2cc(-c3nnc[nH]3)c(N3CCCC(N(C)C)C3)o2)c(C)cn1", "note": "(centres unmarked) [Compound I-26, N-(4-{5-[3-(dimethylamino)piperidin-1-yl]-4-(4H-1,2,4-triazol-3-yl)-2-furyl}-5-methylpyridin-2-yl)acetamide]", "inhibition at 1.111 µM": 129},
      {"smiles": "CC(=O)Nc1cc(-c2cc(C(C)=O)c(-c3ccccc3Cl)o2)c(C)cn1", "note": "[Compound I-27, N-{4-[4-acetyl-5-(2-chlorophenyl)-2-furyl]-5-methylpyridin-2-yl}acetamide]", "inhibition at 1.111 µM": 133},
      {"smiles": "CC(=O)Nc1cc(-c2nc(-c3cc(CN4CCCC4)ccc3Cl)c(C(N)=O)o2)c(C)cn1", "note": "[Compound I-28, 2-(2-acetamido-5-methylpyridin-4-yl)-4-[2-chloro-5-(pyrrolidin-1-ylmethyl)phenyl]-1,3-oxazole-5-carboxamide]", "inhibition at 1.111 µM": 81},
      {"smiles": "COCCNC(=O)c1cc(-c2cc(NC(C)=O)ncc2C)oc1-c1ccccc1Cl", "note": "[Compound I-29, 5-(2-acetamido-5-methylpyridin-4-yl)-2-(2-chlorophenyl)-N-(2-methoxyethyl)-3-furamide]", "inhibition at 1.111 µM": 116},
      {"smiles": "CC(=O)Nc1cc(-c2nc(-c3cc[nH]n3)c(-c3ccccc3Cl)o2)c(C)cn1", "note": "[Compound I-30, N-{4-[5-(2-chlorophenyl)-4-(1H-pyrazol-3-yl)-1,3-oxazol-2-yl]-5-methylpyridin-2-yl}acetamide]", "inhibition at 1.111 µM": 114}
    ]}
  ]
}
